Measurements reported in patent US8106055B2, “Substituted amide compounds” (Gruenenthal GmbH, priority 2007, dated 2012).

Experiments:
human μ opiate receptor = target: T1, human μ opiate receptor (Homo sapiens, UniProt P35372); test: Affinity for the human μ opiate receptor ([3H]-naloxone displacement, CHO-K1 receptor membrane preparation, SPA); assay type: binding; conditions: test concentration of 1 μM; read-out: μ (binding on the μ opioid receptor, % inhibition)
T1 construct: purchased PerkinElmer Life Sciences, Zaventem, Belgium RB-HOM; host or cells: CHO-K1 cells (membrane preparation)
T1 sequence (P35372 whole entry): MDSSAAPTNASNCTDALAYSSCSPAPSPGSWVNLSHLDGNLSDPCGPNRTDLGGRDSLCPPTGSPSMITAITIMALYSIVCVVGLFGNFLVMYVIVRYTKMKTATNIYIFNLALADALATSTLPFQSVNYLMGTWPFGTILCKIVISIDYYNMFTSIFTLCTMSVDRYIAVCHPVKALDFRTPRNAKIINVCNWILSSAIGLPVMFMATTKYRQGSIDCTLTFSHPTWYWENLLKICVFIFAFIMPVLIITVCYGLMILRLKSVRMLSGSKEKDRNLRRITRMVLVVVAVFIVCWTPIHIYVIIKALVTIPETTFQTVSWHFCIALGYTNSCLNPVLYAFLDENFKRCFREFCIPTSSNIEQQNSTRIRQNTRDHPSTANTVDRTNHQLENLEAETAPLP
Summary of the method: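 Membranes from CHO-K1 cells expressing the human μ opiate receptor (15-40 μg protein per well) were incubated with test compound, 1 nmol/l [3H]-naloxone and WGA-SPA beads in 50 mmol/l Tris-HCl with 0.06% BSA for 90 minutes at room temperature. Values are % inhibition of specific binding at 1 μmol/l.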

[1] = target: T2, serotonin (5-HT) reuptake (Rattus norvegicus, UniProt P31652); test: Inhibition of serotonin (5HT) reuptake in synaptosomes from rat brain; assay type: biochemical; conditions: test concentration of 10 μM; read-out: 5-HT (inhibition of reuptake of serotonin, % inhibition)
T2 construct: synaptosomes are freshly isolated from areas of the rat brain; from tissue; host or cells: rat brain synaptosomes (P2 fraction)
T2 sequence (P31652 whole entry): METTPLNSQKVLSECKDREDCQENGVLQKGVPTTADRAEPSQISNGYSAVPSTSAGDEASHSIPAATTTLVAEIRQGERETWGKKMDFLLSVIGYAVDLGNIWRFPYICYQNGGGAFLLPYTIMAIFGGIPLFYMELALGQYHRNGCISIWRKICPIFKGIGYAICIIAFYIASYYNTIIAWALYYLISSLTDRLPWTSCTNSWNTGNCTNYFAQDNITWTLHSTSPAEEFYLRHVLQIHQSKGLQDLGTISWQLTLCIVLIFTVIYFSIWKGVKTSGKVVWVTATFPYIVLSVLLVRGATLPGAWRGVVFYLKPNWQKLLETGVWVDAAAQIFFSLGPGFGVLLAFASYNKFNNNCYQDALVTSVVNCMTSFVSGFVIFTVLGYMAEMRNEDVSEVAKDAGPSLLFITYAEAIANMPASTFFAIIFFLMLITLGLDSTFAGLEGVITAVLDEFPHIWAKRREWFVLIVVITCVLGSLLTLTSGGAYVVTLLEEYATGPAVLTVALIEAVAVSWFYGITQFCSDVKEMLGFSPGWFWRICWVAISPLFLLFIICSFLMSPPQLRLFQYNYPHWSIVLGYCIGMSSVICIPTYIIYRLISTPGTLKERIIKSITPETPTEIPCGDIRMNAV
Summary of the method: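 Freshly isolated rat brain synaptosomes (P2 fraction) used for 5-HT reuptake. Test compound at 10 μM, activity given as % inhibition.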

SMILES	inhibition at 1 µM (human μ opiate receptor)	inhibition at 10 µM [1]
COc1ccc(S(=O)(=O)N2CCCCC2COCC(=O)NCC2CCC(C(c3cccc(F)c3)N(C)C)CC2)c(OC)c1 (stereo not shown) [Example 151, 2-((1-(2,4-dimethoxyphenylsulfonyl)piperidin-2-yl)methoxy)-N-((4-((dimethylamino)(3-fluorophenyl)methyl)cyclohexyl)methyl)acetamide]	90%	87%
COc1cc(C)c(S(=O)(=O)N2CCC(OCC(=O)NC3CCC(C(c4cccc(F)c4)N(C)C)CC3)C2)c(C)c1C (stereo not shown) [Example 189, N-(4-((dimethylamino)(3-fluorophenyl)methyl)cyclohexyl)-2-(1-(4-methoxy-2,3,6-trimethylphenylsulfonyl)pyrrolidin-3-yloxy)acetamide]	84%	96%
COc1cc(C)c(S(=O)(=O)N2CCN(CCOCC(=O)NC3CCC(C(c4ccccc4)N(C)C)CC3)CC2)c(C)c1C (stereo not shown) [Example 20, N-(4-((dimethylamino)(phenyl)methyl)cyclohexyl)-2-(2-(4-(4-methoxy-2,3,6-trimethylphenylsulfonyl)piperazin-1-yl)ethoxy)acetamide]	97%	96%
CN(C)C(c1cccc(F)c1)C1CCC(CCNC(=O)COCCN(C)S(=O)(=O)c2ccc(Cl)cc2)CC1 (stereo not shown) [Example 186, 2-(2-(4-chloro-N-methylphenylsulfonamido)ethoxy)-N-(2-(4-((dimethylamino)(3-fluorophenyl)methyl)cyclohexyl)ethyl)acetamide]	87%	88%
CN(C)C(c1ccccc1)C1CCC(CNC(=O)COCCN(C)S(=O)(=O)c2c(Cl)cccc2Cl)CC1 (stereo not shown) [Example 13, 2-(2-(2,6-dichloro-N-methylphenylsulfonamido)ethoxy)-N-((4-((dimethylamino)(phenyl)methyl)cyclohexyl)methyl)acetamide]	98%	84%
